According to patent US5688787A, “Substituted β-lactam compounds useful as hypochlesterolemic agents and processes for the preparation thereof” (priority 1996, dated 1997):
Where two headings read alike, the source gives them in different places.

Legend:
ACAT = target: T1, ACAT (Rattus norvegicus, UniProt Q7TQM4); assay: ACAT Assay (in vitro); type: biochemical; settings: for inhibition at 10 µM: Conc. 10 µM, negative = apparent stimulation, read-out: ACAT (in vitro) % Inhib.; for IC50: rat liver microsomes, read-out: ACAT (in vitro) IC50
T1 construct: Rat liver microsomes are used as the source of ACAT; from tissue; host or cells: rat liver microsomes
T1 sequence (Q7TQM4 1-524): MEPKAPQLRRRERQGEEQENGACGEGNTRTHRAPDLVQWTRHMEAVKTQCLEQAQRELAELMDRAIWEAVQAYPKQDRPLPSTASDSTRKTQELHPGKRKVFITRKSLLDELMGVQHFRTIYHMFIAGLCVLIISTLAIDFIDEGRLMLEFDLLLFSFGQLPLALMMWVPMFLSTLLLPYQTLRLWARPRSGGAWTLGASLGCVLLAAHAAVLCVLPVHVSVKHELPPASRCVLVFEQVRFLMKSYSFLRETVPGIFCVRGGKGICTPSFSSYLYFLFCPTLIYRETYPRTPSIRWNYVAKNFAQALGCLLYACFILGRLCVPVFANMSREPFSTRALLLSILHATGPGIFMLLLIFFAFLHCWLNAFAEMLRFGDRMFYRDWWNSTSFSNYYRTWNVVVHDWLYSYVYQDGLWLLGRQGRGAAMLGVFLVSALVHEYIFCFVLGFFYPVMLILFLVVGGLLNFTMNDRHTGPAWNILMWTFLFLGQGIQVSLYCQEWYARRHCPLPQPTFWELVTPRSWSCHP

Hyperlipidemic Hamster = assay: In Vivo Assay of Hypolipidemic Agents Using the Hyperlipidemic Hamster; settings: Mesocricetus auratus, po, 168 h, 7 days, percent change versus control, negative = lowering; for change in vivo at 50 mg/kg: 50 mg/kg once daily oral; for change in vivo at 5 mg/kg: 5 mg/kg once daily oral; for change in vivo at 10 mg/kg: 10 mg/kg once daily oral; for change in vivo at 25 mg/kg: 25 mg/kg once daily oral; for change in vivo at 85 mg/kg: 85 mg/kg once daily oral
Procedure, shortened: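 Hamsters, six per group, were fed chow with 0.5% cholesterol for seven days and given compound once daily by oral gavage in corn oil; controls received corn oil alone. Plasma (EDTA) and liver lipids were measured at sacrifice. Values are percent change versus control, so negative means lowering.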

[1] = read-out: % Reduction (in vivo) Cholest. Esters
[2] = read-out: % Reduction (in vivo) Serum Cholest.

Row | SMILES | inhibition at 10 µM (ACAT) [%] | change in vivo at 50 mg/kg (Hyperlipidemic Hamster; [1]) [%] | change in vivo at 50 mg/kg (Hyperlipidemic Hamster; [2]) [%] | further results
1 | COc1ccc(N2C(=O)[C@H](CCCc3ccccc3)[C@H]2c2ccco2)cc1 (relative stereo) [Example 1BD] | 17 | -25 | 0 | 
2 | COc1ccc(N2C(=O)[C@H](CCCc3ccccc3)[C@@H]2c2ccoc2)cc1 (relative stereo) [Example 1BE] | 30 | -21 | -10 | 
3 | COc1ccc(N2C(=O)[C@H](CCCc3ccccc3)[C@H]2c2ccoc2)cc1 (relative stereo) [Example 1BF] | -17 | -23 | 0 | 
4 | COc1ccc(N2C(=O)[C@H](CCCc3ccccc3)[C@H]2c2ccc(C(F)(F)F)cc2)cc1 (relative stereo) [Example 1BG] | 3 | 0 | 12 | 
5 | COc1ccc(N2C(=O)[C@H](CCCc3ccccc3)[C@@H]2c2ccc(C(F)(F)F)cc2)cc1 (relative stereo) [Example 1BH] | 50 | 0 | 0 | 
6 | COc1ccc(N2C(=O)[C@H](CCCc3ccccc3)[C@@H]2c2cccs2)cc1 (relative stereo) [Example 1BI] | 59 | -45 | -17 | 
7 | COc1ccc(N2C(=O)[C@H](CCCc3ccccc3)[C@@H]2c2ccsc2)cc1 (relative stereo) [Example 1BJ] | 56 | 0 | 0 | 
8 | COc1ccc(N2C(=O)[C@H](CCCc3ccccc3)[C@@H]2c2cccc(OC(F)(F)F)c2)cc1 (relative stereo) [Example 1BK] | 55 | 0 | 0 | 
9 | COc1ccc(N2C(=O)[C@@H](CCCc3ccccc3)[C@@H]2c2cccc(OC(F)(F)F)c2)cc1 (relative stereo) [Example 1BL] | 42 | 0 | -10 | 
10 | COc1ccc(N2C(=O)[C@H](CCCc3ccccc3)[C@@H]2c2ccc(C)cc2)cc1 (relative stereo) [Example 1BM] | 38 | -21 | 0 | 
11 | COc1ccc(N2C(=O)[C@H](CCCc3ccccc3)[C@@H]2c2ccc(OCc3ccccc3)cc2)cc1 (relative stereo) [Example 1BN] |  | 0 | -16 | IC50 (ACAT): 7 µM
12 | CCOc1ccc([C@H]2[C@@H](CCCc3ccccc3)C(=O)N2c2ccc(OC)cc2)cc1 (relative stereo) [Example 1BO] | 79 | -93 | -48 | IC50 (ACAT): 5.4 µM
13 | COc1ccc(N2C(=O)[C@@H](CCCc3ccccc3)[C@@H]2c2ccsc2)cc1 (relative stereo) [Example 1BP] | 58 | 0 | -9 | 
14 | COc1ccc(N2C(=O)[C@@H](CCCc3ccccc3)[C@@H]2c2cccs2)cc1 (relative stereo) [Example 1BQ] | 35 | -17 | 0 | 
15 | COc1ccc(N2C(=O)[C@H](CCCc3ccccc3)[C@@H]2c2ccccc2)cc1 (relative stereo) [Example 1B] | 28 | 0 | 0 | 
16 | COc1ccc([C@H]2[C@@H](CCc3ccccc3)C(=O)N2c2ccc(OC)cc2)cc1 (relative stereo) [Example 1CC] | 46 | 0 | 0 | 
17 | COc1ccc([C@H]2[C@@H](CCOc3ccccc3)C(=O)N2c2ccc(OC)cc2)cc1 (relative stereo) [Example 1CD] | 84 | -23 | 0 | IC50 (ACAT): 7 µM

Row | SMILES | inhibition at 10 µM (ACAT) [%] | change in vivo at 50 mg/kg (Hyperlipidemic Hamster; [1]) [%] | change in vivo at 50 mg/kg (Hyperlipidemic Hamster; [2]) [%] | further results
18 | COc1ccc([C@H]2[C@@H](CCCCCCc3ccccc3)C(=O)N2c2ccc(OC)cc2)cc1 (relative stereo) [Example 1CE] | 15 | -17 | -19 | 
19 | COc1ccc([C@H]2[C@@H](CCCC3CCCCC3)C(=O)N2c2ccc(OC)cc2)cc1 (relative stereo) [Example 1CF] | 53 | -47 | -23 | 
20 | COc1ccc([C@H]2[C@@H](CCOc3ccc(F)cc3)C(=O)N2c2ccc(OC)cc2)cc1 (relative stereo) [Example 1CG] | 8 | -61 | -30 | 
21 | COc1ccc([C@H]2[C@@H](CCCCc3ccccc3)C(=O)N2c2ccc(OC)cc2)cc1 (relative stereo) [Example 1CI] | 26 | -23 | -8 | 
22 | CC[C@@]1(c2ccccc2)C(=O)N(c2ccc(OC)cc2)[C@H]1c1ccc(OC)cc1 (relative stereo) [Example 1CK] | -12 | -28 | 0 | 
23 | CCCCCCCCCC[C@@H]1C(=O)N(c2ccc(OC)cc2)[C@@H]1c1ccc(OC)cc1 (relative stereo) [Example 1CL] | 89 | -18 | 0 | 
24 | COc1ccc(N2C(=O)[C@H](CCCc3ccccc3)[C@@H]2c2ccc3c(c2)OCO3)cc1 (relative stereo) [Example 1CN] | -28 | 0 | 0 | 
25 | COc1ccc(N2C(=O)[C@@H](CCCc3ccccc3)[C@@H]2c2ccccc2)cc1 (relative stereo) [Example 1C] | 22 | -15 | -6 | 
26 | COc1ccc(N2C(=O)[C@@H](CCc3ccccc3)[C@H]2c2ccccc2)cc1 (relative stereo) [Example 1D] | 39 | 0 | 0 | 
27 | COc1ccc(N2C(=O)[C@@H](CCCc3ccccc3)[C@@H]2c2ccc([N+](=O)[O-])cc2)cc1 (relative stereo) [Example 1G] | 21 | 0 | -11 | 
28 | COc1ccc(N2C(=O)[C@H](CCCc3ccccc3)[C@@H]2c2ccc([N+](=O)[O-])cc2)cc1 (relative stereo) [Example 1H] | 57 | -51 | -21 | 
29 | COc1ccc(N2C(=O)[C@@H](CCCc3ccccc3)[C@@H]2C=Cc2ccccc2)cc1 (relative stereo) [Example 1K] | -70 | 0 | 0 | 
30 | COc1ccc(N2C(=O)[C@@H](CCCc3ccccc3)[C@H]2c2ccc(O)cc2)cc1 (relative stereo) [Example 1L] | 20 | -75 | -31 | change in vivo at 5 mg/kg (Hyperlipidemic Hamster; [1]): -30%; change in vivo at 5 mg/kg (Hyperlipidemic Hamster; [2]): -25%; change in vivo at 10 mg/kg (Hyperlipidemic Hamster; [1]): -34%; change in vivo at 10 mg/kg (Hyperlipidemic Hamster; [2]): -22%
31 | COc1ccc(C=C[C@H]2[C@H](CCCc3ccccc3)C(=O)N2c2ccc(OC)cc2)cc1 (relative stereo) [Example 1M] | 80 |  |  | IC50 (ACAT): 7 µM; change in vivo at 25 mg/kg (Hyperlipidemic Hamster; [1]): -31%; change in vivo at 25 mg/kg (Hyperlipidemic Hamster; [2]): -11%
32 | COc1ccc(N2C(=O)[C@@H](CCCc3ccccc3)[C@H]2c2cccc(OC)c2)cc1 (relative stereo) [Example 1P] | 39 | -54 | -19 | 
33 | CCCCCCCCCC[C@H]1C(=O)N(c2ccc(OC)cc2)[C@H]1c1ccccc1 (relative stereo) [Example 1S] | -19 |  |  | change in vivo at 85 mg/kg (Hyperlipidemic Hamster; [1]): -32%; change in vivo at 85 mg/kg (Hyperlipidemic Hamster; [2]): 0%
